Experimental data taken from patent US12473304B2, “Heterocyclic PAD4 inhibitors” (BRISTOL-MYERS SQUIBB COMPANY, priority 2020, dated 2025).
pIC50: −log10 of the molar value.

molecular target: human PAD4 (hPAD4) (Homo sapiens (Human), UniProt Q9UM07); assay: RFMS Human PAD4 Functional Assay 1; type: biochemical; conditions: RFMS assay 1; 5 nM hPAD4, 250 μM BAEE substrate, 50 μM calcium, 37° C.
In short: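 Citrullination product read by RapidFire triple-quad MRM against a modified-citrulline internal standard, after TCA stop and 30 min phenyl glyoxal step at 37 °C. Reaction: 250 μM BAEE, 5 nM human PAD4, 90 min at 37 °C, pH 7.5 HEPES buffer with 50 μM calcium and 5 μM TPEN, following 30 min compound–enzyme preincubation (max 50 μM).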

Chain of human PAD4 (hPAD4) (Q9UM07 whole entry): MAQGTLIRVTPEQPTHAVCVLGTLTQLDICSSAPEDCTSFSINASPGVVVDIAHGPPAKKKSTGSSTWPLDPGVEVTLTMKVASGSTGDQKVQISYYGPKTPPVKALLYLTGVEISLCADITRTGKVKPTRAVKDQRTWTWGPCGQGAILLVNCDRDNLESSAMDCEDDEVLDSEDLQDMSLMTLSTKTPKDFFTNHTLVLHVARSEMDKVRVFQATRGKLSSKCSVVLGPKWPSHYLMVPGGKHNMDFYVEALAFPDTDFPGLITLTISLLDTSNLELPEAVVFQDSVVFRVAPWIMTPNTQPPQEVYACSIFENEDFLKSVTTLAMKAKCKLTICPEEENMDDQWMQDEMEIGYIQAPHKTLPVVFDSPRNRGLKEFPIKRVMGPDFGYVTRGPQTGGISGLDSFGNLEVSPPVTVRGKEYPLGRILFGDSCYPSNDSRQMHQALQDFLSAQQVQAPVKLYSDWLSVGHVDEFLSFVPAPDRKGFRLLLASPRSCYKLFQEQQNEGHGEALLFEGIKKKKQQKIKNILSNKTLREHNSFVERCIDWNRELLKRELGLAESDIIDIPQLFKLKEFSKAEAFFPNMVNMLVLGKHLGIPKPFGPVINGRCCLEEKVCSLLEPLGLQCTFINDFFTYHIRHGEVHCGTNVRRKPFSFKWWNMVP

Row | SMILES | pIC50
1 | Cc1c(-c2cc3ccc(-c4cccc(O)c4F)nc3n2CC2CC2)nn2cc(C(=O)N3CCC[C@@H](N)C3)ccc12 [Example 314, 3-(2-{6-[(3R)-3-Aminopiperidine-1-carbonyl]-3-methylpyrazolo[1,5-a]pyridin-2-yl}-1-(cyclopropylmethyl)-1H-pyrrolo[2,3-b]pyridin-6-yl)-2-fluorophenol] | 7.40
2 | Cc1c(-c2cc3ccc(-c4ccc5c(c4)C(=O)NC5)nc3n2CC2CC2)nn2cc(C(=O)N3CCC[C@@H](N)C3)ccc12 [Example 315] | 6.47
3 | Cc1cc(-c2ccc3cc(-c4nn5cc(C(=O)N6CCC[C@@H](N)C6)ccc5c4C)n(CC4CC4)c3n2)ccc1C(N)=O [Example 316, 4-(2-{6-[(3R)-3-Aminopiperidine-1-carbonyl]-3-methylpyrazolo[1,5-a]pyridin-2-yl}-1-(cyclopropylmethyl)-1H-pyrrolo[2,3-b]pyridin-6-yl)-2-methylbenzamide] | 6.60
4 | Cc1c(-c2cc3ccc(-c4ccc5cn[nH]c5c4)nc3n2CC2CC2)nn2cc(C(=O)N3C[C@H](N)C[C@@H](F)C3)ccc12 [Example 321, (3R,5R)-1-{2-[1-(Cyclopropylmethyl)-6-(1H-indazol-6-yl)-1H-pyrrolo[2,3-b]pyridin-2-yl]-3-methylpyrazolo[1,5-a]pyridine-6-carbonyl}-5-fluoropiperidin-3-amine] | 4.82
5 | Cc1c(-c2ccc3cc(-c4nn5cc(C(=O)N6C[C@H](N)C[C@@H](F)C6)ccc5c4C)n(CC4CC4)c3n2)cc(F)c2[nH]c(=O)ccc12 [Example 324, 6-(2-{6-[(3R,5R)-3-Amino-5-fluoropiperidine-1-carbonyl]-3-methylpyrazolo[1,5-a]pyridin-2-yl}-1-(cyclopropylmethyl)-1H-pyrrolo[2,3-b]pyridin-6-yl)-8-fluoro-5-methyl-1,2-dihydroquinolin-2-one] | 6.96
6 | COC(=O)N(C)C1CCN(c2ccc3cc(-c4nn5cc(C(=O)N6C[C@H](N)C[C@@H](F)C6)ccc5c4C)n(CC4CC4)c3n2)CC1 [Example 325, Methyl N-[1-(2-{6-[(3R,5R)-3-amino-5-fluoropiperidine-1-carbonyl]-3-methylpyrazolo[1,5-a]pyridin-2-yl}-1-(cyclopropylmethyl)-1H-pyrrolo[2,3-b]pyridin-6-yl)piperidin-4-yl]-N-methylcarbamate] | 5.81
7 | Cc1c(-c2cc3ccc(-c4ccc(F)c5[nH]ncc45)cc3n2CC2CC2)nn2cc(C(=O)N3CC4CCC3[C@@H]4N)ccc12 (stereo partly drawn) [Example 326, (7R)-2-{2-[1-(Cyclopropylmethyl)-6-(7-fluoro-1H-indazol-4-yl)-1H-indol-2-yl]-3-methylpyrazolo[1,5-a]pyridine-6-carbonyl}-2-azabicyclo[2.2.1]heptan-7-amine] | 6.70
8 | Cc1c(-c2cc3ccc(-c4ccc(N5CCNC5=O)cc4)cc3n2CC2CC2)nn2cc(C(=O)N3CC4CCC3[C@@H]4N)ccc12 (stereo partly drawn) [Example 328, 1-[4-(2-{6-[(7R)-7-Amino-2-azabicyclo[2.2.1]heptane-2-carbonyl]-3-methylpyrazolo[1,5-a]pyridin-2-yl}-1-(cyclopropylmethyl)-1H-indol-6-yl)phenyl]imidazolidin-2-one] | 6.92
9 | Cc1c(-c2cc3ccc(-c4ccc(N5CCCC5=O)cc4)cc3n2CC2CC2)nn2cc(C(=O)N3CC4CCC3[C@@H]4N)ccc12 (stereo partly drawn) [Example 329, 1-[4-(2-{6-[(7R)-7-Amino-2-azabicyclo[2.2.1]heptane-2-carbonyl]-3-methylpyrazolo[1,5-a]pyridin-2-yl}-1-(cyclopropylmethyl)-1H-indol-6-yl)phenyl]pyrrolidin-2-one] | 7.30
10 | Cc1c(-c2cc3ccc(-c4ccc5cn[nH]c5c4F)cc3n2CC2CC2)nn2cc(C(=O)N3CC4CCC3[C@@H]4N)ccc12 (stereo partly drawn) [Example 330, (7R)-2-{2-[1-(Cyclopropylmethyl)-6-(7-fluoro-1H-indazol-6-yl)-1H-indol-2-yl]-3-methylpyrazolo[1,5-a]pyridine-6-carbonyl}-2-azabicyclo[2.2.1]heptan-7-amine] | 6.82
11 | Cc1cc(-c2ccc3cc(-c4nn5cc(C(=O)N6CC7CCC6[C@@H]7N)ccc5c4C)n(CC4CC4)c3c2)c(F)cc1C(N)=O (stereo partly drawn) [Example 331, 4-(2-{6-[(7R)-7-Amino-2-azabicyclo[2.2.1]heptane-2-carbonyl]-3-methylpyrazolo[1,5-a]pyridin-2-yl}-1-(cyclopropylmethyl)-1H-indol-6-yl)-5-fluoro-2-methylbenzamide] | 7.22
12 | Cc1c(-c2cc3ccc(-c4ccc5[nH]ncc5c4)cc3n2CC2CC2)nn2cc(C(=O)N3CC4CCC3[C@@H]4N)ccc12 (stereo partly drawn) [Example 333, (7R)-2-{2-[1-(Cyclopropylmethyl)-6-(1H-indazol-5-yl)-1H-indol-2-yl]-3-methylpyrazolo[1,5-a]pyridine-6-carbonyl}-2-azabicyclo[2.2.1]heptan-7-amine] | 7.70
13 | Cc1cc(-c2ccc3cc(-c4nn5cc(C(=O)N6CC7CCC6[C@@H]7N)ccc5c4C)n(CC4CC4)c3c2)ccc1C(N)=O (stereo partly drawn) [Example 334, 4-(2-{6-[(7R)-7-Amino-2-azabicyclo[2.2.1]heptane-2-carbonyl]-3-methylpyrazolo[1,5-a]pyridin-2-yl}-1-(cyclopropylmethyl)-1H-indol-6-yl)-2-methylbenzamide] | 6.92

Now from value to compound:

Row | pIC50 | SMILES
14 | 6.29 | Cc1c(-c2cc3ccc(-c4ccc5c(c4)CNC5=O)nc3n2CC2CC2)nn2cc(C(=O)N3CCC[C@@H](N)C3)ccc12 [Example 317, 5-(2-{6-[(3R)-3-Aminopiperidine-1-carbonyl]-3-methylpyrazolo[1,5-a]pyridin-2-yl}-1-(cyclopropylmethyl)-1H-pyrrolo[2,3-b]pyridin-6-yl)-2,3-dihydro-1H-isoindol-1-one]
15 | 6.51 | Cc1c(-c2cc3ccc(N4CCOCC4)nc3n2CC2CC2)nn2cc(C(=O)N3CC4CCC3[C@@H]4N)ccc12 (stereo partly drawn) [Example 318, (7R)-2-{2-[1-(Cyclopropylmethyl)-6-(morpholin-4-yl)-1H-pyrrolo[2,3-b]pyridin-2-yl]-3-methylpyrazolo[1,5-a]pyridine-6-carbonyl}-2-azabicyclo[2.2.1]heptan-7-amine]
16 | 7.30 | Cc1c(-c2cc3ccc(N4CCOCC4=O)nc3n2CC2CC2)nn2cc(C(=O)N3CC4CCC3[C@@H]4N)ccc12 (stereo partly drawn) [Example 319, 4-(2-{6-[(7R)-7-Amino-2-azabicyclo[2.2.1]heptane-2-carbonyl]-3-methylpyrazolo[1,5-a]pyridin-2-yl}-1-(cyclopropylmethyl)-1H-pyrrolo[2,3-b]pyridin-6-yl)morpholin-3-one]
17 | 6.82 | Cc1c(-c2cc3ccc(N4CCC(S(C)(=O)=O)CC4)nc3n2CC2CC2)nn2cc(C(=O)N3CC4CCC3[C@@H]4N)ccc12 (stereo partly drawn) [Example 320, (7R)-2-{2-[1-(Cyclopropylmethyl)-6-(4-methanesulfonylpiperidin-1-yl)-1H-pyrrolo[2,3-b]pyridin-2-yl]-3-methylpyrazolo[1,5-a]pyridine-6-carbonyl}-2-azabicyclo[2.2.1]heptan-7-amine]
18 | 6.30 | Cc1c(-c2cc3ccc(-c4cccc5[nH]ncc45)nc3n2CC2CC2)nn2cc(C(=O)N3C[C@H](N)C[C@@H](F)C3)ccc12 [Example 322, (3R,5R)-1-{2-[1-(Cyclopropylmethyl)-6-(1H-indazol-4-yl)-1H-pyrrolo[2,3-b]pyridin-2-yl]-3-methylpyrazolo[1,5-a]pyridine-6-carbonyl}-5-fluoropiperidin-3-amine]
19 | 6.85 | Cc1c(-c2cc3ccc(-c4ccc5[nH]ncc5c4)nc3n2CC2CC2)nn2cc(C(=O)N3C[C@H](N)C[C@@H](F)C3)ccc12 [Example 323, (3R,5R)-1-{2-[1-(Cyclopropylmethyl)-6-(1H-indazol-5-yl)-1H-pyrrolo[2,3-b]pyridin-2-yl]-3-methylpyrazolo[1,5-a]pyridine-6-carbonyl}-5-fluoropiperidin-3-amine]
20 | 7.15 | Cc1c(-c2cc3ccc(-c4cccc5[nH]nc(F)c45)cc3n2CC2CC2)nn2cc(C(=O)N3CC4CCC3[C@@H]4N)ccc12 (stereo partly drawn) [Example 327, (7R)-2-{2-[1-(Cyclopropylmethyl)-6-(3-fluoro-1H-indazol-4-yl)-1H-indol-2-yl]-3-methylpyrazolo[1,5-a]pyridine-6-carbonyl}-2-azabicyclo[2.2.1]heptan-7-amine]
21 | 7.70 | Cc1c(-c2cc3ccc(-c4ccc5cn[nH]c5c4)cc3n2CC2CC2)nn2cc(C(=O)N3CC4CCC3[C@@H]4N)ccc12 (stereo partly drawn) [Example 332, (7R)-2-{2-[1-(Cyclopropylmethyl)-6-(1H-indazol-6-yl)-1H-indol-2-yl]-3-methylpyrazolo[1,5-a]pyridine-6-carbonyl}-2-azabicyclo[2.2.1]heptan-7-amine]
22 | 7.22 | Cc1c(-c2cc3ccc(-c4ccc(C(N)=O)cc4C(F)(F)F)cc3n2CC2CC2)nn2cc(C(=O)N3CC4CCC3[C@@H]4N)ccc12 (stereo partly drawn) [Example 335, 4-(2-{6-[(7R)-7-Amino-2-azabicyclo[2.2.1]heptane-2-carbonyl]-3-methylpyrazolo[1,5-a]pyridin-2-yl}-1-(cyclopropylmethyl)-1H-indol-6-yl)-3-(trifluoromethyl)benzamide]
23 | 7.70 | Cc1c(-c2cc3ccc(-c4ccc(Cl)c5c(NS(C)(=O)=O)nn(C)c45)cc3n2CC2CC2)nn2cc(C(=O)N3CC4CCC3[C@@H]4N)ccc12 (stereo partly drawn) [Example 337, N-[7-(2-{6-[(7R)-7-Amino-2-azabicyclo[2.2.1]heptane-2-carbonyl]-3-methylpyrazolo[1,5-a]pyridin-2-yl}-1-(cyclopropylmethyl)-1H-indol-6-yl)-4-chloro-1-methyl-1H-indazol-3-yl]methanesulfonamide]
24 | 7.30 | Cc1c(-c2cc3ccc(-c4ccccc4N4CCNC4=O)cc3n2CC2CC2)nn2cc(C(=O)N3CC4CCC3[C@@H]4N)ccc12 (stereo partly drawn) [Example 338, 1-[2-(2-{6-[(7R)-7-Amino-2-azabicyclo[2.2.1]heptane-2-carbonyl]-3-methylpyrazolo[1,5-a]pyridin-2-yl}-1-(cyclopropylmethyl)-1H-indol-6-yl)phenyl]imidazolidin-2-one]
